Results on 2 compounds are retold here after patent publication US12630505B2, “Alkyne compound, vitamin D compound, analytical method, and production method” (Tokyo University of Agriculture and Technology, priority 2021, dated 2026).

Assay [1] concerns Antibody column: 1,25-(OH)2-vitamin D3/D2 Immuno Tube Extraction Kit. In words: Separation measurement of 4β,25-(OH)2D3: antibody column fractionation of spiked vitamin D free serum, LC-MS/MS of fractions. The assay is classed as binding. To be noted: vitamin D free serum with 4β,25-(OH)2D3 at 50 pg/mL; SRM chromatograms FIG. 4A/4B. An excerpt:
• Standard: 4β,25-(OH)2D3 (vitamin D compound 54 produced in Example 1) • Stable isotope-labeled compound: 4β,25-(OH)2D3-d4 (vitamin D compound 52 produced in Example 1) • Vitamin D free serum: MSG1000 (Golden West Biologicals) • Antibody column: 1,25-(OH)2-vitamin D3/D2 Immuno Tube (trademark) Extraction Kit (Immunodiagnostik) • SLE column: Isolute SLE+ column (Biotage) • Derivatization reagent (DAP-PA): JeoQuant Kit for LC-MS/MS Analysis of Vitamin D Metabolites (JEOL) (2) IS (Internal Standard) Solution
An aqueous 4β,25-(OH)2D3-d4 solution was prepared at the concentration shown below.
(3) Sample Pretreatment • (3-1) In a microtube, 200 μL of a vitamin D free serum prepared to have a 4β,25-(OH)2D3 concentration of 50 pg/mL and 30 μL of IS were placed to prepare a sample. • (3-2) The sample was loaded on an antibody column, and the column sealed with a cap was gently shaken. • (3-3) The sample was rotated and mixed at room temperature for 1 hour with a rotator to be subjected to antigen-antibody reaction. • (3-4) The outlet of the antibody column was released, and the column was centrifuged at 550 g for 2 minutes to collect a non-adsorbed fraction. • (3-5) Into the column, 500 μL of WASHSOL supplied with the antibody column kit was added, and the column was centrifuged at 550 g for 2 minutes. […]

For assay [2] the test system is unchanged. In words: Antibody column fractionation of pooled serum, LC-MS/MS of adsorbed and non-adsorbed fractions. Type of assay: binding. To be noted: SRM chromatograms FIG. 5B/5C. As for the experimental part:
(4) Sample Pretreatment • (4-1) In a microtube, 200 μL of a calibrator or a pooled serum, 180 μL of IS, and 20 μL of additives were placed, and the whole was stirred to prepare a sample. To the calibrator, 10 μL of an aqueous 1α,25-(OH)2D3 solution (1 ng/mL) and 10 μL of an aqueous 1α,25-(OH)2D3-^13C3 solution (1 ng/mL) were added as the additives. To the pooled serum, 10 μL of an aqueous 1α,25-(OH)2D3-^13C3 solution (1 ng/mL) and 10 μL of water were added. • (4-2) The sample was loaded on an antibody column, and the column sealed with a cap was gently shaken. • (4-3) The sample was rotated and mixed at room temperature for 1 hour with a rotator to be subjected to antigen-antibody reaction. • (4-4) The outlet of the antibody column was released, and the column was centrifuged at 550 g for 2 minutes to collect a non-adsorbed fraction. • (4-5) Into the column, 500 μL of WASHSOL supplied with the antibody column kit was added, and the column was centrifuged at 550 g for 2 minutes. […]

The structures appear in SMILES notation.

For the compound `C=C1CC[C@H](O)[C@H](O)/C1=C/C=C1\CCC[C@]2(C)[C@@H]([C@H](C)CCCC(C)(C)O)CC[C@@H]12` [4β,25-(OH)2D3, 4β,25-dihydroxyvitamin D3], the “Fraction of the antibody column that contains the compound” value in assay [1] is reported as “only in the non-adsorbed fraction”. Besides, in assay [2], the “Fraction of the antibody column in which the compound was collected” value was “collected in the non-adsorbed fraction”.

With `C=C1/C(=C\C=C2/CCC[C@]3(C)[C@@H]([C@H](C)CCCC(C)(C)O)CC[C@@H]23)C[C@@H](O)C[C@@H]1O` [1α,25(OH)2D3, 1α,25-dihydroxyvitamin D3], the “Fraction of the antibody column in which the compound was collected” value in assay [2] is recorded as “collected in the adsorbed fraction”.
